According to the supplement of paper PMC4862054:

How the values were obtained:
Conditions in all cases: incubation time: 72 h
CAL-120 = experiment: drug sensitivity score (DSS), CellTiter-Glo (DSS (AUC-based score)); higher = stronger drug effect (viability inhibition or cytotoxicity); extreme values may be limits of the assay
Summary of the method: (§1)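 Breast cancer cell lines (20 µl suspension) were seeded into 384-well plates holding compound at 5 concentrations in 10-fold steps over a compound-specific 10,000-fold range, then incubated 72 h. CellTox Green fluorescence (485/520 nm) was read first, then CellTiter-Glo luminescence after 10 min at room temperature. Each plate was normalised to 0.1 % DMSO and a positive kill control. The drug sensitivity score was calculated from the area under the fitted dose-response curve.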

MDA-MB-453 [1] = experiment: as above
Summary of the method: as §1

MDA-MB-231 [2] = experiment: as above
Summary of the method: as §1

HCC1599 = experiment: as above
Summary of the method: as §1

HDQ-P1 = experiment: as above
Summary of the method: as §1

Hs578T = experiment: as above
Summary of the method: as §1

MCF-10A = experiment: as above
Summary of the method: as §1

CAL-148 [3] = experiment: as above
Summary of the method: as §1

MFM-223 [4] = experiment: as above
Summary of the method: as §1

HCC1143 = experiment: as above
Summary of the method: as §1

CAL-85-1 [5] = experiment: as above
Summary of the method: as §1

HCC1937 = experiment: as above
Summary of the method: as §1

BT-549 [6] = experiment: as above
Summary of the method: as §1

MDA-MB-468 [7] = experiment: as above
Summary of the method: as §1

MDA-MB-436 = experiment: as above
Summary of the method: as §1

MDA-MB-453 [8] = experiment: normalised viability (% of control), CellTiter-Blue; higher = more viable cells (about 100 = DMSO control)
Summary of the method: (§2)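 Each entry is normalised viability at a single listed concentration within a series. It comes from breast cancer cell lines incubated 72 h with compound in 384-well plates, then measured with CellTiter-Blue fluorescence at 560/590 nm. Every plate was normalised between vehicle (100) and a positive kill control (0).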

MDA-MB-231 [9] = experiment: as above
Summary of the method: as §2

SK-BR-3 = experiment: as above
Summary of the method: as §2

CAL-148 [10] = experiment: as above
Summary of the method: as §2

MFM-223 [11] = experiment: as above
Summary of the method: as §2

BT-474 = experiment: as above
Summary of the method: as §2

CAL-85-1 [12] = experiment: as above
Summary of the method: as §2

BT-549 [13] = experiment: as above
Summary of the method: as §2

MDA-MB-468 [14] = experiment: as above
Summary of the method: as §2

CAL-51 = experiment: as above
Summary of the method: as §2

SMILES: CC(C)C[C@H](NC(=O)[C@@H](COC(C)(C)C)NC(=O)[C@H](Cc1ccc(O)cc1)NC(=O)[C@H](CO)NC(=O)[C@H](Cc1c[nH]c2ccccc12)NC(=O)[C@H](Cc1cnc[nH]1)NC(=O)[C@@H]1CCC(=O)N1)C(=O)N[C@@H](CCCNC(=N)N)C(=O)N1CCC[C@H]1C(=O)NNC(N)=O [Goserelin]
- drug sensitivity score (CAL-120): 0
- drug sensitivity score (MDA-MB-453 [1]): 0
- drug sensitivity score (MDA-MB-231 [2]): 0
- drug sensitivity score (HCC1599): 0
- drug sensitivity score (HDQ-P1): 0
- drug sensitivity score (Hs578T): 0
- drug sensitivity score (MCF-10A): 0
- drug sensitivity score (CAL-148 [3]): 0
- drug sensitivity score (MFM-223 [4]): 0
- drug sensitivity score (HCC1143): 0
- drug sensitivity score (CAL-85-1 [5]): 0
- drug sensitivity score (HCC1937): 0
- drug sensitivity score (BT-549 [6]): 0
- drug sensitivity score (MDA-MB-468 [7]): 0
- drug sensitivity score (MDA-MB-436): 0
- normalised viability (MDA-MB-453 [8]; 3 nM): 115%
- normalised viability (MDA-MB-453 [8]; 30 nM): 101%
- normalised viability (MDA-MB-453 [8]; 100 nM): 102%
- normalised viability (MDA-MB-231 [9]; 10 nM): 102%
- normalised viability (MDA-MB-231 [9]; 1000 nM): 110%
- normalised viability (MDA-MB-231 [9]; 10000 nM): 114%
- normalised viability (SK-BR-3; 10 nM): 98.8%
- normalised viability (SK-BR-3; 1000 nM): 106%
- normalised viability (SK-BR-3; 10000 nM): 94.7%
- normalised viability (CAL-148 [10]; 3 nM): 92%
- normalised viability (CAL-148 [10]; 30 nM): 97%
- normalised viability (CAL-148 [10]; 100 nM): 98.9%
- normalised viability (MFM-223 [11]; 10 nM): 92.1%
- normalised viability (MFM-223 [11]; 1000 nM): 87.8%
- normalised viability (MFM-223 [11]; 10000 nM): 100%
- normalised viability (BT-474; 10 nM): 115%
- normalised viability (BT-474; 1000 nM): 111%
- normalised viability (BT-474; 10000 nM): 131%
- normalised viability (CAL-85-1 [12]; 3 nM): 102%
- normalised viability (CAL-85-1 [12]; 30 nM): 93.9%
- normalised viability (CAL-85-1 [12]; 100 nM): 102%
- normalised viability (BT-549 [13]; 10 nM): 85.9%
- normalised viability (BT-549 [13]; 1000 nM): 88%
- normalised viability (BT-549 [13]; 10000 nM): 103%
- normalised viability (MDA-MB-468 [14]; 10 nM): 96.5%
- normalised viability (MDA-MB-468 [14]; 1000 nM): 94.5%
- normalised viability (MDA-MB-468 [14]; 10000 nM): 108%
- normalised viability (CAL-51; 3 nM): 107%
- normalised viability (CAL-51; 30 nM): 104%
- normalised viability (CAL-51; 100 nM): 105%

SMILES: CC(=O)[C@]1(O)Cc2c(O)c3c(c(O)c2[C@@H](O[C@H]2C[C@H](N)[C@H](O)[C@H](C)O2)C1)C(=O)c1ccccc1C3=O [Idarubicin]
- drug sensitivity score (CAL-120): 1.91
- drug sensitivity score (MDA-MB-453 [1]): 1.75
- drug sensitivity score (MDA-MB-231 [2]): 4.79
- drug sensitivity score (HCC1599): 3.71
- drug sensitivity score (HDQ-P1): 1.38
- drug sensitivity score (Hs578T): 6.15
- drug sensitivity score (MCF-10A): 3.11
- drug sensitivity score (CAL-148 [3]): 10.5
- drug sensitivity score (MFM-223 [4]): 3.67
- drug sensitivity score (HCC1143): 3.11
- drug sensitivity score (CAL-85-1 [5]): 6.75
- drug sensitivity score (HCC1937): 2.31
- drug sensitivity score (BT-549 [6]): 9.35
- drug sensitivity score (MDA-MB-468 [7]): 9.11
- drug sensitivity score (MDA-MB-436): 8.24
- normalised viability (MDA-MB-453 [8]; 0.3 nM): 108%
- normalised viability (MDA-MB-453 [8]; 3 nM): 98.4%
- normalised viability (MDA-MB-453 [8]; 10 nM): 100%
- normalised viability (MDA-MB-231 [9]; 1 nM): 101%
- normalised viability (MDA-MB-231 [9]; 100 nM): 41.5%
- normalised viability (MDA-MB-231 [9]; 1000 nM): 8.68%
- normalised viability (SK-BR-3; 1 nM): 107%
- normalised viability (SK-BR-3; 100 nM): 26.4%
- normalised viability (SK-BR-3; 1000 nM): 4.23%
- normalised viability (CAL-148 [10]; 0.3 nM): 91.7%
- normalised viability (CAL-148 [10]; 3 nM): 93.2%
- normalised viability (CAL-148 [10]; 10 nM): 63.2%
- normalised viability (MFM-223 [11]; 1 nM): 107%
- normalised viability (MFM-223 [11]; 100 nM): 92.5%
- normalised viability (MFM-223 [11]; 1000 nM): 11.5%
- normalised viability (BT-474; 1 nM): 97.3%
- normalised viability (BT-474; 100 nM): 61.8%
- normalised viability (BT-474; 1000 nM): 7.38%
- normalised viability (CAL-85-1 [12]; 0.3 nM): 104%
- normalised viability (CAL-85-1 [12]; 3 nM): 91.9%
- normalised viability (CAL-85-1 [12]; 10 nM): 94.3%
- normalised viability (BT-549 [13]; 1 nM): 108%
- normalised viability (BT-549 [13]; 100 nM): 50%
- normalised viability (BT-549 [13]; 1000 nM): 9.06%
- normalised viability (MDA-MB-468 [14]; 1 nM): 100%
- normalised viability (MDA-MB-468 [14]; 100 nM): 41.2%
- normalised viability (MDA-MB-468 [14]; 1000 nM): 4.98%
- normalised viability (CAL-51; 0.3 nM): 106%
- normalised viability (CAL-51; 3 nM): 98%
- normalised viability (CAL-51; 10 nM): 44.2%
